According to patent US7521540B2, “CYR61 compositions and methods” (Munin Corporation, priority 1996, dated 2009):

Tests used:
[1] = tested on: HUVE cells; test: Thymidine incorporation (mitogen potentiation), HUVE cells; format: cell-based, human
Experimental: Human umbilical vein endothelial cells were plated essentially as described above for 3T3 cells and exposed to a constant amount of murine Cyr61; controls received no Cyr61. Different plates were then exposed to different levels of bFGF, comprising a series of bFGF concentrations ranging from 0-10 ng/ml. […] At 1 ng/ml bFGF, however, HUVE cells increased their thymidine incorporation in the presence of bFGF to 6×10^2 cpm; in the presence of 1 ng/ml bFGF and murine Cyr61, HUVE cells incorporated 1.3×10^3 cpm. At 10 ng/ml bFGF, cells exposed to bFGF incorporated about 1.8×10^3 cpm thymidine; cells receiving 10 ng/ml bFGF and Cyr61 incorporated approximately 6.1×10^3 cpm.
The capacity of murine Cyr61 to potentiate the mitogenic activity of bFGF was verified by a thymidine incorporation assay involving HUVE cells and various combinations of bFGF, Cyr61, and anti-Cyr61 antibodies. Cells were plated and grown as described above. The following combinations of supplements (final plate concentrations noted parenthetically) were then pre-incubated for 1 hour before addition to individual plates: 1) pre-immune antiserum (3%); 2) bFGF (15 ng/ml) and pre-immune antiserum (3%); 3) pre-immune antiserum (3%) and Cyr61 (4 μg/ml); 4) pre-immune antiserum (3%), Cyr61 (4 μg/ml), and bFGF (15 ng/ml); 5) anti-Cyr61 antiserum (3%); 6) anti-Cyr61 antiserum and bFGF (15 ng/ml); 7) anti-Cyr61 antiserum (3%) and Cyr61 (4 μg/ml); and 8) anti-Cyr61 antiserum (3%), Cyr61 (4 μg/ml), and bFGF (15 ng/ml).
DNA synthesis for HUVE cells and NIH 3T3 fibroblasts was measured by thymidine incorporation as described previously (Kireeva et al., [1996]) with minor modifications. HUVE cells were grown in 24-well plates to a subconfluent state, serum-starved for 24 hours and treated with F12K medium containing 10% fetal bovine serum (FBS), 1 μCi/ml [^3H]-thymidine and 10 ng/ml basic Fibroblast Growth Factor (bFGF) (Gibco-BRL, Inc.) with various concentrations of Cyr61 and Fisp12 as indicated. […] Thymidine incorporation into the trichloroacetic acid-insoluble fraction was determined after 24 hour incubation. […]

[2] = tested on: NIH 3T3 fibroblasts; test: Thymidine incorporation (mitogen potentiation), NIH 3T3; format: cell-based, mouse; details: bFGF 15 ng/ml or PDGF-BB 30 ng/ml
Experimental: More specifically, NIH 3T3 fibroblast cells were plated on 24-well plates at 3×10^4 cells/well and grown in DMEM with 10% fetal bovine serum (Intergen Co., Purchase, N.Y.) for 3-4 days and incubated with medium containing 0.2% FBS for the following 48 hours. The following compounds, at the parenthetically noted final concentrations, were then added to the plated cells in fresh DMEM containing 0.2% fbs and [^3H]-thymidine (1 μCi/ml final concentration; ICN Biomedicals, Inc., Costa Mesa, Calif.): bFGF (15 ng/ml), PDGF-BB (30 ng/ml), and murine Cyr61 (0.5-5 μg/ml). These compounds were added to individual plates according to the following pattern: 1) no supplementation; 2) murine Cyr61; 3) bFGF; 4) murine Cyr61 and bFGF; 5) PDGF-BB; and 6) murine Cyr61 and PDGF. After 18-20 hours of incubation, cells were washed with PBS and fixed with 10% trichloroacetic acid. DNA was dissolved in 0.1 N NaOH and thymidine incorporation was determined. […] Without any supplements, 3T3 cells incorporated approximately 1.8×10^4 cpm of [^3H]-thymidine, in the presence or absence of Cyr61. […]
DNA synthesis for HUVE cells and NIH 3T3 fibroblasts was measured by thymidine incorporation as described previously (Kireeva et al., [1996]) with minor modifications. […] Thymidine incorporation into the trichloroacetic acid-insoluble fraction was determined after 24 hour incubation. […]

[3] = tested on: Human Microvascular Endothelial Cells; test: In vitro migration assay for angiogenesis inhibitors; format: cell-based; details: bFGF 10 ng/ml; Cyr61; IGF-II
Experimental: As in the preceding Example, human microvascular endothelial cells (Clonetics) were used. In one series of assays, several carbohydrates and carbohydrate derivatives were analyzed. These compounds included 10 mM mannose, 10 mM mannose-6-phosphate, and 10 mM galactose. […] Cyr61 plus galactose induced the migration of approximately 74 cells per set of three high-powered fields. […] The angiogenic activity of basic FGF (10 ng/ml) was also tested, as described above, with and without mannose-6-phosphate. In the presence of 10 mM mannose-6-phosphate, bFGF induced 51 cells per set of three high-powered fields to migrate; in its absence, bFGF induced the migration of approximately 52 cells. […] The effect of mannose-6-phosphate on IGF II activity was anticipated because mannose-6-phosphate is known to compete with IGF II for their common receptor (the IGF II receptor). […] Moreover, because there is an essentially perfect correlation between the in vitro migration assay and the in vivo angiogenesis assay, described below, mannose-6-phosphate has been identified as an inhibitor of angiogenesis based on the results of the assay disclosed herein. Accordingly, the invention contemplates a method of inhibiting angiogenesis comprising the step of administering an inhibitor the angiogenic activity of Cyr61 such as mannose-6-phosphate. Assays such as that described above may also be used to screen for other inhibitors of angiogenesis which may be useful in the treatment of diseases associated with angiogenesis such as cancer, and diseases of the eye which are accompanied by neovascularization.

## bFGF: Growth factor used as positive control [reference compound]
[1]; 0-0.1 ng/ml bFGF, presence or absence of Cyr61, 72 hours
  thymidine incorporation, baseline: approximately 4×10^2 cpm
[1]; 1 ng/ml bFGF
  thymidine incorporation, bFGF alone: 6×10^2 cpm
[1]; 10 ng/ml bFGF
  thymidine incorporation, bFGF alone: about 1.8×10^3 cpm
[2]
  [3H]-thymidine incorporation, growth factor alone: about 1.2×10^5 cpm
[3]
  migrating cells, chemoattractant without mannose-6-phosphate: approximately 52 cells
